Assay results as given in patent US20250255293A1, “TISSUE DECONTAMINATION AND PRESERVATION SYSTEM” (priority 2024, published 2025).

Assays:
[1] = test system: clinically relevant bacterial species; test: Quantitative microbial culture of osteoarticular fracture fragments (Example 5); format: cell-based, Roseomonas sp, Methylobacterium sp; conditions: for decontamination of osteoarticular tissues based on quantitative microbial tissue cultures (in words): days 7 and 14 of MOPS storage
Method: Skeletally mature purpose-bred research hounds (n=16) were humanely euthanized for purposes unrelated to the present study. Immediately following euthanasia, each dog was positioned in sternal recumbency with one forelimb extended and secured in a custom-made positioning apparatus. Fur was not clipped and no aseptic preparation or decontamination techniques were performed. Using a validated technique, a penetrating captive bolt stunner pistol (CASH Special, FRONTMATEC, Birmingham, United Kingdom) with a 1.25 grain cartridge was centered on the cranial (anterior) aspect of the distal humerus, immediately proximal to the elbow joint and with firm pressure against the secured elbow, the pistol was discharged, creating type 3 open distal humeral fractures. After the fractures were induced and radiographs obtained, the skin and soft tissues were aseptically removed. For each elbow (n=32), osteoarticular tissues were obtained from the distal humerus, proximal radius and proximal ulna such that 96 contaminated, devascularized, osteoarticular fracture fragments were randomly allocated to undergo treatment using one of the following protocols for comparison: 1)⋅Betadine (n=42): bulb irrigation using 1 L of 0.9% saline, followed by immersion in 10% povidone-iodine solution for 20 min, followed by bulb irrigation using 1 L of 0.9% saline; 2)⋅Chlorhexidine (n=42): bulb irrigation using 1 L of 0.9% saline, followed by immersion in 0.002% chlorhexidine gluconate solution immersion for 20 min, followed by bulb irrigation using 1 L of 0.9% saline; and 3)⋅Injured Control (n=12): no decontamination treatment. Each fragment was then immediately placed in 200 ml of Missouri Osteochondral Preservation System (MOPS®) solution in individual sterile closed containers, transported to the on-site laboratory and placed in a dedicated storage cabinet in standard room temperature and humidity conditions for 7 or 14 days.
Microbial Cultures. At days 7 (n=21) or 14 (n=21) of storage, osteoarticular fracture fragments were also collected and processed for quantitative microbial culture. […] Microorganism cultures were quantified using Colony-Forming Unit (CFU) counts per milliliter of broth. […] Post incubation, the number of colonies formed on each plate was counted. The number of CFUs per milliliter (CFU/ml) was calculated using the formula: CFU/ml=(number of colonies×dilution factor)/volume inoculated. […]
Statistical Analysis. All data were analyzed using statistical software R Studio, version 4.3.1 (Posit Software, Boston, MA, USA). Descriptive statistics for VCD, % VCD and CFU were calculated to report means, standard deviations, ranges and percentages. […]

Staphylococcus aureus = conditions: 20-minute immersion in 2% chlorhexidine, grossly contaminated bone segments; cited from earlier work
[2] = test system: microbial contamination of osteoarticular fracture fragments; test: Quantitative microbial culture of osteoarticular fragments, colony forming units per specimen (Example 3); format: cell-based; conditions: for Colony Forming Units, mean (SD): 20 min immersion (10% povidone-iodine or 0.002% chlorhexidine)
Source text: Purpose-bred hounds (n=16) were humanely euthanized, immediately after which an open articular fracture in both elbows (n=32) was created using a captive bolt pistol. Each dog was positioned in sternal recumbency with one forelimb extended and secured in a custom made positioning apparatus. Fur was not clipped and no aseptic preparation or techniques were implemented. A captive bolt stunner pistol with a 4.75-inch penetrating pin and 1.25 grain cartridge was centered on the cranial (anterior) aspect of the distal humerus, immediately proximal to the joint. With firm pressure against the secured elbow, the pistol was discharged, and the procedure was repeated for the contralateral elbow. Soft tissues were removed aseptically and the distal humerus (n=32), proximal radius (n=32), and trochlea (n=32) were osteotomized and processed under operating room conditions in 1 of 3 ways: 1) Betadine ([…]): 0.9% saline irrigation (1 L), 10% povidone-iodine solution immersion (20 min), saline irrigation; 2) Chlorhexidine (n=42): saline irrigation, 0.002% chlorhexidine solution immersion (20 min), saline irrigation; 3) Control (n=12): untreated. Each osteoarticular fragment was placed in 200 ml of MOPS® solution (500 ml DMEM, 5 ml ITS (insulin (10 mg/L), transferrin 55 mg/L), selenium (6.7 μg/L)), 5 ml total penicillin (100 U/ml), streptomycin (100 μg/ml), amphotericin B (2.5 μg/ml), 5 ml L-glutamine (2 mM), 5 ml non-essential amino acids (0.1 mM), 1 ml ascorbic acid (50 ng/ml), and 5.46 ml dexamethasone (0.1 μM)) in a sterile container and stored under standard room temperature and humidity conditions for 7 (n=46) or 14 (n=48) days. At each time point, viable chondrocyte density (VCD) and quantitative microbial culture assessments were assayed, yielding a count of colony forming units (CFU) per specimen.
In parallel, quantitative microbial cultures were performed on the humerus, radial head, and trochlea of each dog at either 7 or 14 days. Each tissue intended for culture was placed into 18 ml thioglycollate broth and vortexed for 30 seconds. One milliliter of the broth was immediately extracted for the 1:1 dilution and placed in an Eppendorf tube. Serial 1:10 dilutions were made from that subsample and plated within an hour. The plating process comprised 10 μl of each dilution streaked semi-quantitatively onto tryptic soy agar with 5% sheep blood and reduced blood agar. All dilutions were incubated for 72 hours before counting. Additional incubation in the remaining 17 ml thioglycollate for 48 hours was performed, and 10 μl of thioglycollate was re-streaked at that time and incubated for another 72 hours. Organisms were identified via MALDI-TOF or 16S sequencing.
Univariate comparison of VCD and CFU were performed via Kruskal-Wallis and Chi-squared test. Multivariate linear regression was used, controlling for osteotomy site and storage time, to determine the correlation between processing method and VCD or CFU. Data manipulation and statistical analysis were performed using R software.

Compound: [H]/N=C(\N/C(=N/[H])NCCCCCCNC(=N)NC(=N)Nc1ccc(Cl)cc1)Nc1ccc(Cl)cc1 [Chlorhexidine, chlorhexidine gluconate]
- CFUs for clinically relevant bacterial species ([1]; days 7 and 14): No CFUs
- decontamination of osteoarticular tissues based on quantitative microbial tissue cultures (in words) [1]: effective at decontamination
- decontamination of osteoarticular tissues based on quantitative microbial tissue cultures (in words) ([1]; listed as chlorhexidine): effectively decontaminated
- decontamination of osteoarticular tissues based on quantitative microbial tissue cultures (in words) ([1]; listed as chlorhexidine gluconate): effective for decontaminating
- removal of Staphylococcus aureus burden (Staphylococcus aureus): > 99%
- mean CFU ([2]; at 7 days): 0.4
- mean CFU ([2]; at 14 days): 7.9
- decrease of CFU relative to control treatment ([2]; multivariate linear regression, controlling for osteotomy site and storage timing): 15.8×10^6 CFU
- decontamination of osteoarticular fracture fragments (in words) ([2]; saline irrigation, 0.002% chlorhexidine immersion, room temperature storage in MOPS): effective for decontaminating osteoarticular fracture fragments
- Colony Forming Units, mean (SD) ([2]; storage time 7 days in MOPS at room temperature): 0.4 (1.8) 10^6 per specimen
- Colony Forming Units, mean (SD) ([2]; storage time 14 days in MOPS at room temperature): 7.9 (14.2) 10^6 per specimen
